For one series, the target named is T1, NAD kinase 1 (Listeria monocytogenes serovar 1/2a (strain ATCC BAA-679 / EGD-e), UniProt Q8Y8D7).
T1 sequence (Q8Y8D7 whole entry): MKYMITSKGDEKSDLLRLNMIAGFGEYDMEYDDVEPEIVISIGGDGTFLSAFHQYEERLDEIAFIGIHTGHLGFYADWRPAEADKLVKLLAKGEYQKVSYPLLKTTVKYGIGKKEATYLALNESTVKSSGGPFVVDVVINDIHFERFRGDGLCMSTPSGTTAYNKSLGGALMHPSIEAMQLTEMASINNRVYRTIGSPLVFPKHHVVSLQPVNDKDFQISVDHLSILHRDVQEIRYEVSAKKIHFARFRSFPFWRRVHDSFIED
In words: Inhibition of Listeria monocytogenes NAD kinase assessed as suppression of reduced NADP formation by yeast glucose-6-phosphate dehydrogenase coupled assay.

The target of a further series is Coagulation factor X (Homo sapiens, UniProt P00742). The series is described as follows: Inhibition human FA10a using Boc-LeuGly-Arg-AMC fluorogenic substrate.
For series [1], the target named is Luciferin 4-monooxygenase (Photinus pyralis, UniProt P08659). In words: Inhibition of Photinus pyralis luciferase using ATP and D-luciferin in presence of Coenzyme A and DL-cysteine by luminescence based assay.
Series [2] deals with T2, Prostaglandin G/H synthase 2 (Homo sapiens, UniProt P35354).
T2 sequence (P35354 whole entry): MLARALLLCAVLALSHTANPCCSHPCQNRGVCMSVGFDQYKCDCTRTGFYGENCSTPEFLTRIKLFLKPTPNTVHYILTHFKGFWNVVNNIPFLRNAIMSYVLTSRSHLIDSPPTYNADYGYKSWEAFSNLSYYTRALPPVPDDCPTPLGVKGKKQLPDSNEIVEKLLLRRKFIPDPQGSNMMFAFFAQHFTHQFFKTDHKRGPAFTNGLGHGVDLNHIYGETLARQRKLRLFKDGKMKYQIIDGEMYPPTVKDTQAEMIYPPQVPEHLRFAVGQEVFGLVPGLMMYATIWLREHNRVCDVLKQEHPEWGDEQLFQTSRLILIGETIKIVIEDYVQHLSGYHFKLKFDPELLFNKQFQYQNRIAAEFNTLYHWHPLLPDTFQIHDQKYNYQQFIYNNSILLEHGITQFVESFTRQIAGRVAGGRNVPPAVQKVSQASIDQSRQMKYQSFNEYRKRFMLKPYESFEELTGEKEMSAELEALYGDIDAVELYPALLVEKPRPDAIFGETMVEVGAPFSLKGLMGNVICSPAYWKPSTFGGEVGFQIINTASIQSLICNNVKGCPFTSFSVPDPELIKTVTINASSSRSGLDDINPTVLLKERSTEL
In words: Binding affinity to human COX2.

For series [3], the target named is T3, Bifunctional ligase/repressor BirA (Staphylococcus aureus, UniProt A0A0E7NXW5).
T3 sequence (A0A0E7NXW5 whole entry): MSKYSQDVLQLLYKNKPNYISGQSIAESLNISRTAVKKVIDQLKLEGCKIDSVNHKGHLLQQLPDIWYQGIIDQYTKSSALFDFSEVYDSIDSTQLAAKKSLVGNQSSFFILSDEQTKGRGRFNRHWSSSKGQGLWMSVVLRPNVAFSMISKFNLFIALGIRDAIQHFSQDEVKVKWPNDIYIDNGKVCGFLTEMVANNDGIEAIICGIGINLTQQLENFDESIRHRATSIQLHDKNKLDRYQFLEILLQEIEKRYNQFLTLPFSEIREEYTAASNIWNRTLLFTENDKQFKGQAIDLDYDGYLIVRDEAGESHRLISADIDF
The series is described as follows: Binding affinity to Staphylococcus aureus biotin protein ligase.

The target in series [4] is T4, Signal transducer and activator of transcription 5B (Homo sapiens) (UniProt P51692).
T4 sequence (whole entry): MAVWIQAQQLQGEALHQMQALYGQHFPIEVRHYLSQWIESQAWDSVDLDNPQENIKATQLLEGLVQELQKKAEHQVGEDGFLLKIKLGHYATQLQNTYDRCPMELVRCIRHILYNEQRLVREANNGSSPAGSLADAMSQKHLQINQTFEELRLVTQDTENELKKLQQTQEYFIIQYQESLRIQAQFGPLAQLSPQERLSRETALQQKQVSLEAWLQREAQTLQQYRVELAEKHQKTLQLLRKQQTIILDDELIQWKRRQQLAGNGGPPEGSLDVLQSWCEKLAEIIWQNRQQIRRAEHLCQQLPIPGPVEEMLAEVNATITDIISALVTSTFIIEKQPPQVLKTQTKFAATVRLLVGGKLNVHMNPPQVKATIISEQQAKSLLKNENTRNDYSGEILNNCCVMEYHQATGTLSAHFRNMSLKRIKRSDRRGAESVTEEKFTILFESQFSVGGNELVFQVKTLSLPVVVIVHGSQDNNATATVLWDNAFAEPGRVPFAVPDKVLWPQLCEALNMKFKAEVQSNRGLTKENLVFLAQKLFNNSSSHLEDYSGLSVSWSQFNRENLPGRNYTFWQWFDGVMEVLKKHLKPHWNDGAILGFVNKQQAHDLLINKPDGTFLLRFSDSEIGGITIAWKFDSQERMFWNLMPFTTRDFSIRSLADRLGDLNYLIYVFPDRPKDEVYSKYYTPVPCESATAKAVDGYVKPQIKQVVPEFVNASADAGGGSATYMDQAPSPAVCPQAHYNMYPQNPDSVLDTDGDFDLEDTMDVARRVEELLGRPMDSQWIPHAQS
The series is described as follows: Binding affinity to MBP-tagged recombinant STAT5b-SH2 domain (unknown origin) assessed as change in melting temperature by CETSA method.

Series [5] has as its target T5, Signal transducer and activator of transcription 5B (Homo sapiens, UniProt P51692).
T5 sequence (P51692 whole entry): T4 sequence (whole entry)
The series is described as follows: Binding affinity to MBP-tagged recombinant STAT5b-SH2 domain (unknown origin) using carboxyfluoresceine-labeled phosphotyrosine octapeptide incubated for 12 hrs by fluorescence polarization assay.

The target in series [6] is T6, Signal transducer and activator of transcription 5B (Mus musculus) (UniProt P42232).
T6 sequence (whole entry): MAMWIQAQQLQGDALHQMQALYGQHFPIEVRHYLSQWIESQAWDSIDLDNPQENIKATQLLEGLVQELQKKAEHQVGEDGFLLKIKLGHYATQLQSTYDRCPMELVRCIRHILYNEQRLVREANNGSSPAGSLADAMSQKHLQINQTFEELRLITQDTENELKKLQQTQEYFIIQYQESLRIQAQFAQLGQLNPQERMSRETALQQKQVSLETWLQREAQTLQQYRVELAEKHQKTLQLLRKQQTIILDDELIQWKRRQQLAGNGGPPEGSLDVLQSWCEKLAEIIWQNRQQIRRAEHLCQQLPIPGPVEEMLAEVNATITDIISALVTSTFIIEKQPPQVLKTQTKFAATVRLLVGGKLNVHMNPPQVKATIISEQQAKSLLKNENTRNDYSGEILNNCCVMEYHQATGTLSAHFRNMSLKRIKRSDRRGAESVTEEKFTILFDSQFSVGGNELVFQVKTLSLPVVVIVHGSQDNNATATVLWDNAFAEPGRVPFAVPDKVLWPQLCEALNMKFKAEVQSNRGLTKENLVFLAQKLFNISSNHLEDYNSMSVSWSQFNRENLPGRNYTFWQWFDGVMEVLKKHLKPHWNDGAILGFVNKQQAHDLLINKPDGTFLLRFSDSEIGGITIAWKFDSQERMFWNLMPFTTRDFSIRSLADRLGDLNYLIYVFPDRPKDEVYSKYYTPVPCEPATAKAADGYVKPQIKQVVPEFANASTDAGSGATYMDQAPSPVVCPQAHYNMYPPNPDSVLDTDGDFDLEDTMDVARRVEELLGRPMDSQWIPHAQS
The series is described as follows: Inhibition of STAT5b in mouse BaF3/FLT3-ITD cells incubated for 6 hrs by CETSA-ITDRF assay. The class given is cell-based.

The target of another series is Prothrombin (Homo sapiens, UniProt P00734). In words: Inhibition of thrombin (unknown origin).
Series [7] is described as follows: Antitumor activity against mouse BaF3/FLT3-ITD cells implanted in NSG mouse assessed as induction of tumor growth regression at 200 mg/kg, sc QD for 14 days relative to control. It counts as functional.
Series [8] concerns the target T6, Signal transducer and activator of transcription 5B (Mus musculus). The series is described as follows: Inhibition of STAT5b phosphorylation in mouse BaF3/FLT3-ITD cells at 25 uM after 6 hrs by Western blot analysis relative to control. The class given is cell-based. (In general: In western blotting, separated proteins are transferred to a membrane and probed.)

The nature of series [9]: Biodistribution in RBC of SCID mouse measured after 10 mins. It counts as ADME, organism-based. The settings on record: erythrocyte.
The target of a further series is Carbonic anhydrase 2 (Bos taurus, UniProt P00921). In words: Binding affinity to bovine carbonic anhydrase 2.
The nature of series [10]: Biodistribution in plasma of SCID mouse measured after 10 mins. The class given is ADME, organism-based. The settings on record: in vivo.

The text below walks through data of ChEMBL document CHEMBL4354833, “Kinetic Target-Guided Synthesis: Reaching the Age of Maturity” (J Med Chem, 2020).

Usually Ki stands for a dissociation constant, usually derived from enzyme kinetics or from competition with a known ligand. One may read the IC50 as the concentration that gives 50% inhibition. A word on the Kd: it is a measure of binding affinity in units of concentration. High values mean a looser complex, low ones a tighter complex. As a reminder, the ΔTm is the change in melting temperature against a reference sample. For orientation: inhibition means the share of the control response that was lost under treatment. Lower therefore signals a response near the control.

Sequence of Luciferin 4-monooxygenase (P08659 whole entry): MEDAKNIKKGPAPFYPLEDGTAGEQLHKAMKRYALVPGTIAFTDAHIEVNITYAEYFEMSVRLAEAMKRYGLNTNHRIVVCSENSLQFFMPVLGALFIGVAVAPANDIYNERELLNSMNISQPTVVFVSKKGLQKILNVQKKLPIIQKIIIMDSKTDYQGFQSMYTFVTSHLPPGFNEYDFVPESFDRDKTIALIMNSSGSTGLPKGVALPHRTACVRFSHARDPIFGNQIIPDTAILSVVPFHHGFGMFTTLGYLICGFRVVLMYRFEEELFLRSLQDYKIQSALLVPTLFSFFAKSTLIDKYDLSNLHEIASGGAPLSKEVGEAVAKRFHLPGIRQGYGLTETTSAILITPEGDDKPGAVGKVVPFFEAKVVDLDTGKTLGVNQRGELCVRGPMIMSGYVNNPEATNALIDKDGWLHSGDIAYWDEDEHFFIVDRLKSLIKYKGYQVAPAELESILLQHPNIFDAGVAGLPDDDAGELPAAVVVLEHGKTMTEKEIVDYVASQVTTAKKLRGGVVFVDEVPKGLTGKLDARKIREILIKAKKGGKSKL
Sequence of Coagulation factor X (P00742 41-179 limits assumed): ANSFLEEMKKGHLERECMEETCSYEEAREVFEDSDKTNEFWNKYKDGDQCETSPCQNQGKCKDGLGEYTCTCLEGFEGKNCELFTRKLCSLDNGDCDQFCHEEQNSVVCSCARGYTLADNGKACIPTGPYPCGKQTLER
Sequence of Coagulation factor X (P00742 235-488 limits assumed): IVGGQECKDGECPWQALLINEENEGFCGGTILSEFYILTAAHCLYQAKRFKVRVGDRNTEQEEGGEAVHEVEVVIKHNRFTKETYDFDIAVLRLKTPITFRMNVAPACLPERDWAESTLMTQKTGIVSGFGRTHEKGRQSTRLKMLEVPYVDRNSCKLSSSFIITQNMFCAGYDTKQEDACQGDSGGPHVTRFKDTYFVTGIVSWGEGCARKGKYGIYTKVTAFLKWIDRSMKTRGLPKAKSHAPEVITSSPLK
Sequence of Carbonic anhydrase 2 (P00921 whole entry): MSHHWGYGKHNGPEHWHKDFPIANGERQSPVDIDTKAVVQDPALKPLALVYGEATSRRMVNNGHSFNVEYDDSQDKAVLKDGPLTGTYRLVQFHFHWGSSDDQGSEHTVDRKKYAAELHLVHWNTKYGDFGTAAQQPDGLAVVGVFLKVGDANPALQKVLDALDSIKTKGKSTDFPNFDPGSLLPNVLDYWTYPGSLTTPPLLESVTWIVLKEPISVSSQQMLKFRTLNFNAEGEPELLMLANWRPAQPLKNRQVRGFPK

As for `[N-]=[N+]=NC[C@H]1O[C@@H](n2c(SCC(=O)NC[C@H]3O[C@@H](n4cnc5c(N)ncnc54)[C@H](O)[C@@H]3O)nc3c(N)ncnc32)[C@H](O)[C@@H]1O`, on NAD kinase 1, the Ki was determined as 25000 nM.

In turn, `N=C(N)c1ccc(CN)cc1` yielded a Ki on Coagulation factor X of 680000 nM.

In the case of `Nc1ncnc2c1ncn2[C@H]1O[C@@H](COP(=O)(O)OC(=O)c2cccc(-c3noc(-c4ccccc4F)n3)c2)[C@H](O)[C@@H]1O`, the IC50 in [1] was 10 nM.

On to `Cc1cnc(Cn2cc(-c3onc(-c4ccccc4)c3-c3ccc(S(N)(=O)=O)cc3)nn2)c(C)c1[18F]`, for which binding in series [2] was put at a Kd of 10 nM.

On to `O=C1N[C@H]2[C@H](CS[C@H]2CCCCc2cn(CCCNc3ccc([N+](=O)[O-])c4nonc34)nn2)N1`, for which the Ki in series [3] was determined as 1400 nM.

Turning to `O=C(O)c1nonc1NCn1cnnn1`, the ΔTm in [4] came out at 8 °C. Also, in [5], the IC50 is 1400 nM. Moreover, the Occ50 in series [6] was found to be 28 µM.

Take `N=C(N)c1ccc(NC(C(=O)NCc2ccccc2)c2ccccc2)cc1` (stereo not given): the Ki on Prothrombin was 50 nM.

As to `O=C(O)c1nonc1NCn1nnnc1Cc1ccccc1`, the IC50 in [5] turned out to be 2900 nM. Besides, the Activity in [7] is 28%. This compound returned an inhibition in [8] of more than 50%.

`CC(C)[C@H](C(=O)NCc1cc([18F])ccn1)n1cc(-c2ccc(S(N)(=O)=O)cc2)nn1`: the values for the Drug uptake in series [9] and in [10] were 90% and 10%, respectively. This compound registered a Kd on Carbonic anhydrase 2 of 0.5 nM.
